Values joined by “and” are separate entries in the source; they are usually repeats but may differ in a detail not shown here. Equal entries are not always repeated.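 Results reflect a 48-hour exposure of cells in 96-well plates to compound at five concentrations. Here, GI50 denotes the concentration required for 50% inhibition of growth. TGI marks complete inhibition of growth.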
Tested on: MOLT-4 leukemia
Test: NCI tumour cell line growth inhibition, 48 h

SMILES | TGI | GI50
COC(=O)c1c/c(=N\NC(=O)CC(=O)Nc2ccccc2OC)c2ccccc2o1 | > 100 µM | 
Cn1c2ccccc2c2c(-c3ccccc3)[n+]3ccncc3nc21 | > 100 µM | > 100 µM
NC(CCC(=O)NC(CSSCCCCS(=O)O)C(=O)NCC(=O)O)C(=O)O (stereo not drawn) | > 100 µM | 
COC12C=C(C)C(CC1)CC2C(=O)O (stereo not drawn) | > 100 µM | 
COc1ccc(-c2cnnc3c(-c4cccc(C(F)(F)F)c4)cnn23)cc1 | > 100 µM | > 100 µM
O=c1c2cc([N+](=O)[O-])ccc2sc2ccsc12 | > 100 µM | 
C=CCCCCCCCCC(=O)[O][Sn]([CH2]CCC)([CH2]CCC)[CH2]CCC | 0.833 µM | 0.228 µM
COc1ccc(C2=CC3CCC2C3)cc1 (stereo not drawn) | > 100 µM | 
COc1ccc(/C=C/CN(C)CCc2ccccc2)cc1OC | > 100 µM | 
[Cl-].[Dy+3].[O-]/N=C(\c1ccccc1)c1ccccn1.[O-]/N=C(\c1ccccc1)c1ccccn1.[O-]/N=C(\c1ccccc1)c1ccccn1 | 78.7 µM | 8.47 µM
COc1ccc(/C(COc2c(-c3ccccc3)oc3ccccc3c2=O)=N\O)cc1 | > 50 µM | 22.9 µM
NC(=O)C(=O)N/N=C(\CC1(O)C(=O)Nc2ccccc21)c1ccc2ccccc2c1 (stereo not drawn) | 53.5 µM | 
Cc1cc2c(cc1C)[n+](=O)c(C(=O)C/C(=N/NC(=O)CC#N)C(=O)Nc1ccccc1C(F)(F)F)c(C)n2[O-] | > 100 µM | 
COc1cc([N+](=O)[O-])cc2c3c(n(C)c12)[C@@]1(C)CCC2c4ccc(OCc5ccccc5)cc4CCC2C1C3 (stereo partly drawn) | > 100 µM | > 100 µM
COC(=O)/C(=N/NC(=O)C[N+](C)(C)C)C(C(=O)OC)C(=O)C(=O)Nc1ccc(F)cc1 (stereo not drawn) | > 100 µM | 
CC[C@@H]1C(=O)N(C)c2cnc(Nc3ccc(C(=O)NC4CCN(C)CC4)cc3OC)nc2N1C1CCCC1 | 1.39 µM and 0.579 µM | 0.00387 µM and < 0.01 µM
O=C(c1ccccc1)c1nnc(C(=O)c2ccccc2)nn1 | > 344 µM | 
Brc1cccc(C=NC23CC4CC(CC(C4)C2)C3)c1 | > 100 µM | 
Nc1nc(Cl)c2ncn(Cc3ccc(C45CC6CC(CC(C6)C4)C5)c(O)c3)c2n1 | 16.2 µM | 1.25 µM

SMILES | TGI | GI50
CCC(C)c1c(Cl)nc(Cl)nc1Cl (stereo not drawn) | > 100 µM | 
CC(C)c1nc(CN(C)C(=O)N[C@H](C(=O)N[C@@H](Cc2ccccc2)C[C@H](O)[C@H](Cc2ccccc2)NC(=O)OCc2cncs2)C(C)C)cs1 | 27.5 µM | 7.54 µM
CCC[CH2][Sn]([CH2]CCC)([O]C(=O)c1cccnc1SC)[O]C(=O)c1cccnc1SC | 0.929 µM | 0.149 µM
O=C1O[C@@H](c2ccc3c(c2)OCO3)C2C(=O)O[C@@H](c3ccc4c(c3)OCO4)C12 (stereo partly drawn) | > 100 µM | 
O=C1CCC(=O)N2CCCCN12 | > 100 µM | 
CC(C)C(=O)NC(=S)Nc1ccc([N+](=O)[O-])cc1C#N | > 100 µM | 
C/C(CC(=O)Nc1cc(Cl)c(Cl)cc1Cl)=N\NC(N)=O | > 100 µM | 
N#Cc1cc([N+](=O)[O-])ccc1NC(=O)C(=O)Nc1n[nH]c(N)n1 | > 100 µM | 
O=C(/C=C/c1c(O)ccc2ccccc12)c1cccc(O)c1 | > 100 µM | 
CC1=NN(C(=O)Nc2ccccc2)C(=O)C2CCC(=O)N12 (stereo not drawn) | > 100 µM | 
COC(=O)C1Cc2c(n(Cc3ccccc3)c3ccccc23)C(CCC(=O)O)N1C(C)C (stereo not drawn) | > 100 µM | 
O=C(O)CNS(=O)(=O)c1ccc(NCc2ccccc2)cc1 | > 100 µM | 
C[C@]12CC[C@H]3[C@@H](CC=C4C[C@@H](O)CC[C@@]43C)[C@@H]1CC[C@@H]2N(CCO)CCO | > 100 µM | 
CC(C)(C)C1C=C(Sc2ccccc2)C(=O)O1 (stereo not drawn) | > 100 µM | 
CCC[CH2][Sn]1([CH2]CCC)[O]Cc2nc(C)ccc2[O]1 | 10.7 µM | 3.04 µM
O=c1/c(=C/c2ccco2)sc2nc3ccccc3n12 | > 100 µM | > 100 µM
COc1ccc(/C=C/c2nccc3ccccc23)cc1OC | > 10 µM | 
O=C1CCC2(c3ccc(F)cc3)Nc3cc(Cl)ccc3N12 (stereo not drawn) | > 100 µM | 
C/C(CC(=O)Nc1ccc(C)cc1C)=N/N=C(N)N | > 100 µM | 

Tested on: MDA-MB-435
Test: NCI tumour cell line growth inhibition, 48 h

SMILES | GI50 [µM] | TGI [µM]
Cn1c2ccccc2c2c(-c3ccccc3)[n+]3ccncc3nc21 | 94.3 | > 100
COc1ccc(-c2cnnc3c(-c4cccc(C(F)(F)F)c4)cnn23)cc1 | 5.04 | > 100
CCc1ccc(/C=C\c2cc(OC)c(OC)c(OC)c2)cc1 |  | 0.0066
C=CCCCCCCCCC(=O)[O][Sn]([CH2]CCC)([CH2]CCC)[CH2]CCC | 0.153 | 0.319
COc1cc([N+](=O)[O-])cc2c3c(n(C)c12)[C@@]1(C)CCC2c4ccc(OCc5ccccc5)cc4CCC2C1C3 (stereo partly drawn) | > 100 | > 100
Nc1nc(Cl)c2ncn(Cc3ccc(C45CC6CC(CC(C6)C4)C5)c(O)c3)c2n1 | 5.14 | 23.2
CCC(C)c1c(Cl)nc(Cl)nc1Cl (stereo not drawn) |  | 9.1
CC(C)c1nc(CN(C)C(=O)N[C@H](C(=O)N[C@@H](Cc2ccccc2)C[C@H](O)[C@H](Cc2ccccc2)NC(=O)OCc2cncs2)C(C)C)cs1 | 20.1 | 57.4
C[C@]12CC[C@H]3[C@@H](CC=C4C[C@@H](O)CC[C@@]43C)[C@@H]1CC[C@@H]2N(CCO)CCO |  | > 100
COc1ccc(/C=C/c2nccc3ccccc23)cc1OC |  | > 10

Tested on: TK-10 renal
Test: NCI tumour cell line growth inhibition, 48 h

SMILES | TGI | GI50
COC(=O)c1c/c(=N\NC(=O)CC(=O)Nc2ccccc2OC)c2ccccc2o1 | > 100 µM | 
Cn1c2ccccc2c2c(-c3ccccc3)[n+]3ccncc3nc21 | > 100 µM | > 100 µM
NC(CCC(=O)NC(CSSCCCCS(=O)O)C(=O)NCC(=O)O)C(=O)O (stereo not drawn) | > 100 µM | 
COC12C=C(C)C(CC1)CC2C(=O)O (stereo not drawn) | > 100 µM | 
OCC(O)CC[CH2][Sn]([Br])([c]1ccccc1)[c]1ccccc1 (stereo not drawn) | > 100 µM | > 100 µM
C=CCCCCCCCCC(=O)[O][Sn]([CH2]CCC)([CH2]CCC)[CH2]CCC | 0.311 µM | 0.165 µM
COc1ccc(C2=CC3CCC2C3)cc1 (stereo not drawn) | > 100 µM | 
COc1ccc(/C=C/CN(C)CCc2ccccc2)cc1OC | > 100 µM | 
[Cl-].[Dy+3].[O-]/N=C(\c1ccccc1)c1ccccn1.[O-]/N=C(\c1ccccc1)c1ccccn1.[O-]/N=C(\c1ccccc1)c1ccccn1 | > 100 µM | 46.3 µM
COc1ccc(/C(COc2c(-c3ccccc3)oc3ccccc3c2=O)=N\O)cc1 | 26.2 µM | 10.2 µM
NC(=O)C(=O)N/N=C(\CC1(O)C(=O)Nc2ccccc21)c1ccc2ccccc2c1 (stereo not drawn) | > 100 µM | 
Cc1cc2c(cc1C)[n+](=O)c(C(=O)C/C(=N/NC(=O)CC#N)C(=O)Nc1ccccc1C(F)(F)F)c(C)n2[O-] | > 100 µM | 
COc1cc([N+](=O)[O-])cc2c3c(n(C)c12)[C@@]1(C)CCC2c4ccc(OCc5ccccc5)cc4CCC2C1C3 (stereo partly drawn) | > 100 µM | 86 µM
COC(=O)/C(=N/NC(=O)C[N+](C)(C)C)C(C(=O)OC)C(=O)C(=O)Nc1ccc(F)cc1 (stereo not drawn) | > 100 µM | 
CC[C@@H]1C(=O)N(C)c2cnc(Nc3ccc(C(=O)NC4CCN(C)CC4)cc3OC)nc2N1C1CCCC1 | > 7.36 µM and 5.56 µM | 0.285 µM and 0.123 µM
O=C(c1ccccc1)c1nnc(C(=O)c2ccccc2)nn1 | > 344 µM | 

SMILES | TGI | GI50
Brc1cccc(C=NC23CC4CC(CC(C4)C2)C3)c1 | > 100 µM | 
Nc1nc(Cl)c2ncn(Cc3ccc(C45CC6CC(CC(C6)C4)C5)c(O)c3)c2n1 | 8.93 µM | 2.2 µM
CCC(C)c1c(Cl)nc(Cl)nc1Cl (stereo not drawn) | 41.3 µM | 
CC(C)c1nc(CN(C)C(=O)N[C@H](C(=O)N[C@@H](Cc2ccccc2)C[C@H](O)[C@H](Cc2ccccc2)NC(=O)OCc2cncs2)C(C)C)cs1 | > 92.6 µM | 36.6 µM
CCC[CH2][Sn]([CH2]CCC)([O]C(=O)c1cccnc1SC)[O]C(=O)c1cccnc1SC | 1.69 µM | 0.527 µM
O=C1O[C@@H](c2ccc3c(c2)OCO3)C2C(=O)O[C@@H](c3ccc4c(c3)OCO4)C12 (stereo partly drawn) | > 100 µM | 
O=C1CCC(=O)N2CCCCN12 | > 100 µM | 
CC(C)C(=O)NC(=S)Nc1ccc([N+](=O)[O-])cc1C#N | > 100 µM | 
C/C(CC(=O)Nc1cc(Cl)c(Cl)cc1Cl)=N\NC(N)=O | > 100 µM | 
N#Cc1cc([N+](=O)[O-])ccc1NC(=O)C(=O)Nc1n[nH]c(N)n1 | > 100 µM | 
O=C(/C=C/c1c(O)ccc2ccccc12)c1cccc(O)c1 | > 100 µM | 
CC1=NN(C(=O)Nc2ccccc2)C(=O)C2CCC(=O)N12 (stereo not drawn) | > 100 µM | 
COC(=O)C1Cc2c(n(Cc3ccccc3)c3ccccc23)C(CCC(=O)O)N1C(C)C (stereo not drawn) | > 100 µM | 
O=C(O)CNS(=O)(=O)c1ccc(NCc2ccccc2)cc1 | > 100 µM | 
C[C@]12CC[C@H]3[C@@H](CC=C4C[C@@H](O)CC[C@@]43C)[C@@H]1CC[C@@H]2N(CCO)CCO | > 100 µM | 
CC(C)(C)C1C=C(Sc2ccccc2)C(=O)O1 (stereo not drawn) | > 100 µM | 

Source: PubChem BioAssay (NCI)
